In ChEMBL document CHEMBL5715942, “A novel histone deacetylase 8 (HDAC8)-specific inhibitor PCI-34051 induces apoptosis in T-cell lymphomas” (Leukemia, 2008):
Active and inactive are the calls of the source. The rule behind the calls is not given here.

Columns and labels:
Jurkat [1] = test: Induction of apoptosis in human Jurkat cells assessed as intracellular calcium level at 0.4 uM in presence of Iodo-1 by spectrofluorimetric analysis; type: functional, cell-based
U-87 MG [2] = test: Anti-proliferative activity against human U87 cells assessed as growth inhibition incubated for 72 hrs by alamar blue staining based fluorometric assay; type: functional, U-87MG ATCC
MCF7 [3] = test: Anti-proliferative activity against human MCF7 cells assessed as growth inhibition incubated for 72 hrs by alamar blue staining based fluorometric assay; type: functional
MCF7 [4] = test: Induction of apoptosis in human MCF7 cells incubated for 72 hrs by Annexin-V staining based flow cytometry analysis relative to control; type: functional
RKO [5] = test: Induction of apoptosis in human RKO cells incubated for 72 hrs by Annexin-V staining based flow cytometry analysis relative to control; type: functional
CCRF-HSB-2 [6] = test: Induction of apoptosis in human CCRF-HSB-2 cells assessed as cell death at 5 uM incubated for 2 days by Annexin-V staining based flow cytometry analysis; type: functional; conditions: time 2.0 day
Jurkat [7] = test: Induction of apoptosis in human Jurkat cells assessed as intracellular calcium level at 10 uM in presence of Iodo-1 and U73343 by spectrofluorimetric analysis; type: functional, cell-based
K562 [8] = test: Induction of apoptosis in human K562 cells assessed as cell death at 5 uM incubated for 2 days by Annexin-V staining based flow cytometry analysis; type: functional; conditions: time 2.0 day
Raji [9] = test: Induction of apoptosis in human Raji cells assessed as cell death at 5 uM incubated for 2 days by Annexin-V staining based flow cytometry analysis; type: functional; conditions: time 2.0 day
MOLT-4 [10] = test: Anti-proliferative activity against human MOLT-4 cells assessed as growth inhibition incubated for 72 hrs by alamar blue staining based fluorometric assay; type: functional
K562 [11] = test: Anti-proliferative activity against human K562 cells assessed as growth inhibition incubated for 72 hrs by alamar blue staining based fluorometric assay; type: functional
THP-1 [12] = test: Anti-proliferative activity against human THP-1 cells assessed as growth inhibition incubated for 72 hrs by alamar blue staining based fluorometric assay; type: functional
U-87 MG [13] = test: Induction of apoptosis in human U87 cells incubated for 72 hrs by Annexin-V staining based flow cytometry analysis relative to control; type: functional, U-87MG ATCC
Ramos [14] = test: Induction of apoptosis in human Ramos cells assessed as cell death at 5 uM incubated for 2 days by Annexin-V staining based flow cytometry analysis; type: functional; conditions: time 2.0 day
SUD4 [15] = test: Induction of apoptosis in human SU-DHL-4 cells assessed as cell death at 5 uM incubated for 2 days by Annexin-V staining based flow cytometry analysis; type: functional; conditions: time 2.0 day
Jurkat [16] = test: Induction of apoptosis in human Jurkat cells at 5 uM incubated for 24 hrs in presence of thapsigargin by Annexin-V staining based flow cytometry analysis relative to control; type: functional
J.gamma1 [17] = test: Induction of apoptosis in human J.gamma1 cells assessed as cytochrome c release from mitochondria at 10 uM incubated for 12 to 24 hrs by Western blotting analysis; type: functional, cell-based; conditions: time lower 12.0 hrs, time upper […]
HuT78 [18] = test: Anti-proliferative activity against human HuT78 cells assessed as growth inhibition incubated for 72 hrs by alamar blue staining based fluorometric assay; type: functional
A549 = test: Induction of apoptosis in human A549 cells incubated for 72 hrs by Annexin-V staining based flow cytometry analysis relative to control; type: functional
MOLT-4 [19] = test: Induction of apoptosis in human MOLT-4 cells assessed as cell death at 5 uM incubated for 2 days by Annexin-V staining based flow cytometry analysis; type: functional; conditions: time 2.0 day
Jurkat [20] = test: Cytotoxicity in human Jurkat cells assessed as tubulin acetylation at <25 uM incubated for 24 hrs by Western blotting analysis; type: functional, cell-based
Jurkat [21] = test: Induction of apoptosis in human Jurkat cells assessed as increased caspase-3 activity at 5 uM incubated for 12 to 48 hrs by colorimetric assay; type: functional, cell-based; conditions: time 12-48 hrs
OVCAR-3 [22] = test: Induction of apoptosis in human OVCAR-3 cells incubated for 72 hrs by Annexin-V staining based flow cytometry analysis relative to control; type: functional
DB [23] = test: Induction of apoptosis in human DB cells assessed as cell death at 5 uM incubated for 2 days by Annexin-V staining based flow cytometry analysis; type: functional; conditions: time 2.0 day
HCT-116 [24] = test: Induction of apoptosis in human HCT-116 cells incubated for 72 hrs by Annexin-V staining based flow cytometry analysis relative to control; type: functional
Jurkat [25] = test: Cytotoxicity in human Jurkat cells assessed as histone acetylation at <25 uM incubated for 24 hrs by Western blotting analysis; type: functional, cell-based
Jurkat [26] = test: Induction of apoptosis in human Jurkat cells assessed as decrease in intracellular calcium level at 10 uM in presence of Iodo-1 and U73122 by spectrofluorimetric analysis; type: functional, cell-based
J.gamma1 [27] = test: Induction of apoptosis in human J.gamma1 cells at 5 uM incubated for 24 hrs in presence of thapsigargin by Annexin-V staining based flow cytometry analysis relative to control; type: functional
Ramos [28] = test: Anti-proliferative activity against human Ramos cells assessed as growth inhibition incubated for 72 hrs by alamar blue staining based fluorometric assay; type: functional
J.gamma1 [29] = test: Downregulation of apoptosis in human J.gamma1 cells at 5 uM incubated for 2 days by Annexin-V staining based flow cytometry analysis; type: functional, cell-based; conditions: time 2.0 day
HeLa = test: Anti-proliferative activity against human HeLa cells assessed as growth inhibition incubated for 72 hrs by alamar blue staining based fluorometric assay; type: functional
Jurkat [30] = test: Downregulation of apoptosis in human Jurkat cells incubated for 2 days in presence of U73122 by Annexin-V staining based flow cytometry analysis; type: functional, cell-based; conditions: dose 10.0 µM, time 2.0 day
HCT-116 [31] = test: Anti-proliferative activity against human HCT-116 cells assessed as growth inhibition incubated for 72 hrs by alamar blue staining based fluorometric assay; type: functional
Raji [32] = test: Anti-proliferative activity against human Raji cells assessed as growth inhibition incubated for 72 hrs by alamar blue staining based fluorometric assay; type: functional
RPMI-8226 [33] = test: Induction of apoptosis in human RPMI-8226 cells assessed as cell death at 5 uM incubated for 2 days by Annexin-V staining based flow cytometry analysis; type: functional; conditions: time 2.0 day
OVCAR-3 [34] = test: Anti-proliferative activity against human OVCAR-3 cells assessed as growth inhibition incubated for 72 hrs by alamar blue staining based fluorometric assay; type: functional
Jurkat [35] = test: Induction of apoptosis in human Jurkat cells assessed as PARP cleavage at 5 uM incubated for 48 hrs by Western blotting analysis; type: functional, cell-based
J.gamma1 [36] = test: Induction of apoptosis in human J.gamma1 cells at 10 uM incubated for 2 days in presence of U-73343 by Annexin-V staining based flow cytometry analysis; type: functional, cell-based; conditions: time 2.0 day
RPMI-8226 [37] = test: Anti-proliferative activity against human RPMI-8226 cells assessed as growth inhibition incubated for 72 hrs by alamar blue staining based fluorometric assay; type: functional
Jurkat [38] = test: Downregulation of apoptosis in human Jurkat cells at 10 uM incubated for 2 days in presence of U-73343 by Annexin-V staining based flow cytometry analysis; type: functional, cell-based; conditions: time 2.0 day
J.gamma1 [39] = test: Induction of apoptosis in human J.gamma1 cells assessed as abolished intracellular calcium level at 10 uM incubated for 5 mins in presence of Iodo-1 by spectrofluorimetric analysis; type: functional, cell-based
HuT78 [40] = test: Induction of apoptosis in human HuT78 cells assessed as cell death at 5 uM incubated for 2 days by Annexin-V staining based flow cytometry analysis; type: functional; conditions: time 2.0 day
SUD4 [41] = test: Anti-proliferative activity against human SU-DHL-4 cells assessed as growth inhibition incubated for 72 hrs by alamar blue staining based fluorometric assay; type: functional
Jurkat [42] = test: Anti-proliferative activity against human Jurkat cells assessed as growth inhibition incubated for 72 hrs by alamar blue staining based fluorometric assay; type: functional
RKO [43] = test: Anti-proliferative activity against human RKO cells assessed as growth inhibition incubated for 72 hrs by alamar blue staining based fluorometric assay; type: functional
Jurkat [44] = test: Induction of apoptosis in human Jurkat cells assessed as increase in intracellular calcium level at 2.5 to 10 uM incubated for 5 mins in presence of Iodo-1 and Ionomycin by spectrofluorimetric analysis; type: functional, cell-based; conditions: dose 2.5-10 µM
Jurkat [45] = test: Induction of apoptosis in human Jurkat cells assessed as decrease in FL-Bid at 5 uM incubated for 24 hrs by Western blotting analysis
Jurkat [46] = test: Induction of apoptosis in human Jurkat cells assessed as increase in intracellular calcium level incubated for 5 mins in presence of Iodo-1 by spectrofluorimetric analysis; type: functional, cell-based; conditions: dose 2.5-10 µM
J.gamma1 [47] = test: Induction of apoptosis in human J.gamma1 cells at 10 uM incubated for 2 days in presence of U-73122 by Annexin-V staining based flow cytometry analysis; type: functional, cell-based; conditions: time 2.0 day
J.gamma1 [48] = test: Downregulation of apoptosis in human J.gamma1 cells at 10 uM incubated for 24 hrs in presence of BAPTA-AM by Annexin-V staining based flow cytometry analysis
THP-1 [49] = test: Induction of apoptosis in human THP-1 cells assessed as cell death at 5 uM incubated for 2 days by Annexin-V staining based flow cytometry analysis; type: functional; conditions: time 2.0 day
CCRF-HSB-2 [50] = test: Anti-proliferative activity against human CCRF-HSB-2 cells assessed as growth inhibition incubated for 72 hrs by alamar blue staining based fluorometric assay; type: functional
Jurkat [51] = test: Induction of apoptosis in human Jurkat cells assessed as cell death at 5 uM incubated for 2 days by Annexin-V staining based flow cytometry analysis; type: functional; conditions: time 2.0 day
DB [52] = test: Anti-proliferative activity against human DB cells assessed as growth inhibition incubated for 72 hrs by alamar blue staining based fluorometric assay; type: functional
Jurkat [53] = test: Downregulation of apoptosis in human Jurkat cells incubated for 24 hrs in presence of BAPTA-AM by Annexin-V staining based flow cytometry analysis; type: functional, cell-based; conditions: dose 10.0 µM
Jurkat [54] = test: Induction of apoptosis in human Jurkat cells assessed as increase in cytosolic cytochrome c level at 10 uM incubated for 12 to 24 hrs by Western blotting analysis; type: functional, cell-based; conditions: time lower 12.0 hrs, time upper […]

`COc1ccc2c(c1)CC[C@@H]1[C@@H]2CC[C@]2(C)[C@@H](NCCCCCCN3C(=O)C=CC3=O)CC[C@@H]12` was tested, and the Activity (Jurkat [1]) was “inactive”.
`COc1ccc(Cn2ccc3ccc(C(=O)NO)cc32)cc1` showed a GI50 (U-87 MG [2]) of 17 µM, a GI50 (MCF7 [3]) greater than 20 µM and an Activity (MCF7 [4]) of 0%. The Activity (RKO [5]) was 0%, the Activity (CCRF-HSB-2 [6]) was “Active” and the Activity (Jurkat [7]) was “Active”. The Activity (K562 [8]) was “inactive”, the Activity (Raji [9]) was “inactive” and the GI50 (MOLT-4 [10]) was 3.3 µM. It also gave a GI50 (K562 [11]) of 33.6 µM, a GI50 (THP-1 [12]) of 15.4 µM and an Activity (U-87 MG [13]) of 0%. For the same molecule, the Activity (Ramos [14]) was “inactive”, the Activity (SUD4 [15]) was “inactive” and the Activity (Jurkat [16]) was greater than 30%. For the same molecule, the Activity (J.gamma1 [17]) was “inactive”, the GI50 (HuT78 [18]) was 4 µM and the Activity (A549) was 0%. The Activity (MOLT-4 [19]) was “Active”, the Activity (Jurkat [20]) was “inactive” and the Activity (Jurkat [21]) was “Active”. For the same molecule, the Activity (OVCAR-3 [22]) was 15%, the Activity (DB [23]) was “inactive” and the Activity (HCT-116 [24]) was 3%. For the same molecule, the Activity (Jurkat [25]) was “inactive”, the Activity (Jurkat [26]) was “Active” and the Activity (J.gamma1 [27]) was 2%. For the same molecule, the GI50 (Ramos [28]) was 6.1 µM, the Activity (J.gamma1 [29]) was “Active” and the GI50 (HeLa) was greater than 20 µM. The Activity (Jurkat [30]) was “Dose-Dependent Effect”, the GI50 (HCT-116 [31]) was greater than 20 µM and the GI50 (Raji [32]) was 6.8 µM. The Activity (RPMI-8226 [33]) was “inactive”, the GI50 (OVCAR-3 [34]) was 6 µM and the Activity (Jurkat [35]) was “Active”. For the same molecule, the Activity (J.gamma1 [36]) was “inactive”, the GI50 (RPMI-8226 [37]) was 28 µM and the Activity (Jurkat [38]) was “inactive”. The Activity (J.gamma1 [39]) was “inactive”, the Activity (HuT78 [40]) was “Active” and the GI50 (SUD4 [41]) was 8.2 µM. The GI50 (Jurkat [42]) was 2.4 µM, the GI50 (RKO [43]) was 14 µM and the Activity (Jurkat [44]) was “Active”. For the same molecule, the Activity (Jurkat [45]) was “inactive”, the Activity (Jurkat [46]) was “Dose-Dependent Effect” and the Activity (J.gamma1 [47]) was “inactive”. For the same molecule, the Activity (J.gamma1 [48]) was “inactive”, the Activity (THP-1 [49]) was “inactive” and the GI50 (CCRF-HSB-2 [50]) was 1.4 µM. The Activity (Jurkat [51]) was “Active”, the GI50 (DB [52]) was 21.2 µM and the Activity (Jurkat [53]) was “Dose-Dependent Effect”. For the same molecule, the Activity (Jurkat [54]) was “Active”.
